From US4552843A, “Process for producing an acidic polycyclic ether antibiotic by cultivation of a novel strain of Streptomyces endus subspecies aureus” (Pfizer Inc., priority 1984, dated 1985)
Converted amounts (≈) assume the structure as drawn. Read-outs that look alike come from different tables or passages of the source.

Tests used:
[1] = system: Gram-positive microorganisms; assay: inhibitory action against growth of Gram-positive microorganisms; assay type: cell-based; conditions: in vitro
Experimental: (§1) In Table I, below, the results of in vitro MIC tests are summarized. For this test each organism is inoculated in a series of test tubes of CP-63,517 to determine the minimal concentration of the antibiotic in mcg/ml which inhibits the growth of the organism over a period of 24 hours (MIC).

Eimeria tenella = assay: efficacy against coccidial infections in chickens (Table II); assay type: in vivo; conditions: for Ratio: lesion score treated / infected control; for % Weight Gain / Average Degree of Infection: chicks; for Average Degree of Infection: lesion score 0 to 4, six days
Experimental: (§2) Efficacy data for Antibiotic CP-63,517 and its salts against coccidial infections in chickens was obtained in the following fashion. Groups of 3-5 ten-day old SPF white leghorn cockerel chicks were fed a mash diet containing Antibiotic CP-63,517, its sodium and/or potassium salt, or the known agents Monensin or Stenorol uniformly dispersed therein. After being on this ration for 24 hours each chick was inoculated per os with oocysts of the particular species of Eimeria being tested. Other groups of 3-5 ten-day old chicks were fed a similar mash diet free of any test compound. They were also infected after 24 hours and served as infected controls. Yet another group of 3-5 ten-day old chicks were fed the mash diet free of any test compound and were not infected with coccidia. These served as normal controls. The results of treatment were evaluated after five days in the case of E. acervulina, and six days for other challenges.
(§3) ^1 The criteria used to measure anticoccidial activity consisted of
(§4) lesion scores of 0 to 4 for Eimeria tenella after J. E. Lynch, "A New
(§5) Method for the Primary Evaluation of Anticoccidial Activity", Am. J. Vet.
(§6) modification of the scoring system devised by J. Johnson and W. H. Reid,
(§7) "Anticoccidial Drugs. Lesion Scoring Techniques in Battery and Floor Pen
(§8) Experiments in Chicks", Exp. Parasit. 28: 30-36 (1970). A constant ratio
(§9) was established by dividing the lesion score of each treated group by the
(§10) lesion score of the infected control.

Eimeria acervulina = assay: as above; assay type: in vivo; conditions: for Ratio: lesion score treated / infected control; for % Weight Gain / Average Degree of Infection: chicks; for Average Degree of Infection: lesion score 0 to 3, five days
Experimental: as §2, §3, §4, §5, §6, §7, §8, §9, §10

P. haemolytica = assay: in vitro MIC test (Table I); assay type: cell-based; conditions: Mannheimia haemolytica, 24 h
Experimental: as §1

Staphylococcus aureus = assay: in vitro MIC test (Table I); assay type: cell-based; conditions: 24 h
Experimental: as §1

Bordatella bronchi = assay: in vitro MIC test (Table I); assay type: cell-based; conditions: 24 h
Experimental: as §1

Pasteurella multocida = assay: in vitro MIC test (Table I); assay type: cell-based; conditions: 24 h
Experimental: as §1

Treponema hyodysenteriae = assay: in vitro MIC test (Table I); assay type: cell-based; conditions: for MIC: 24 hours
Experimental: as §1

Streptococcus pyogenes = assay: in vitro MIC test (Table I); assay type: cell-based; conditions: strain 020054, 24 hours
Experimental: as §1

F. necrophorum = assay: in vitro MIC test (Table I); assay type: cell-based; conditions: Fusobacterium necrophorum; strain 84C004; 24 hours
Experimental: as §1

Lactobacillus casei = assay: in vitro MIC test (Table I); assay type: cell-based; conditions: Lacticaseibacillus casei; strain 09B001; 24 hours
Experimental: as §1

Peptococcus sp. = assay: in vitro MIC test (Table I); assay type: cell-based; conditions: strain 17B001; 24 hours
Experimental: as §1

Corynebacterium pyogenes = assay: in vitro MIC test (Table I); assay type: cell-based; conditions: 24 hours
Experimental: as §1

Moraxella bovis = assay: in vitro MIC test (Table I); assay type: cell-based; conditions: strain 93A001, 24 hours
Experimental: as §1

Bacteroides vulgates = assay: in vitro MIC test (Table I); assay type: cell-based; conditions: 24 h
Experimental: as §1

[2] = system: Staphylococcus epidermidis; assay: in vitro MIC test (Table I); assay type: cell-based; conditions: 24 h
Experimental: as §1

Haemophilus parahemol. = assay: in vitro MIC test (Table I); assay type: cell-based; conditions: strain 54B002, 24 hours
Experimental: as §1

Erysip. rhusio = assay: in vitro MIC test (Table I); assay type: cell-based; conditions: strain 04A005; 24 hours
Experimental: as §1

L. catenaforme = assay: in vitro MIC test (Table I); assay type: cell-based; conditions: strain 09C001; 24 hours
Experimental: as §1

Fusobacterium plauti = assay: in vitro MIC test (Table I); assay type: cell-based; conditions: Flavonifractor plautii; strain 84G001; 24 hours
Experimental: as §1

[3] = 10 ppm in diet, replicate (in parentheses)
[4] = 20 ppm in diet, replicate (in parentheses)
[5] = 30 ppm in diet, replicate (in parentheses)
[6] = 40 ppm in diet, replicate (in parentheses)
[7] = diet of chickens at levels of 5 to 40 ppm

COC1CCC(OC2CC3(CC(O)C(C)C(C(C)C=C(C)C(=O)C(C)CC(C)C(=O)O)O3)OC2(C)C2CCC(C)C3(OC(C4OC(O)(CO)C(C)CC4C)CC3C)O2)OC1C (stereo not shown) [CP-63,517]
antibacterial / growth inhibitory activity [1]: exhibits inhibitory action against the growth of a number of Gram-positive microorganisms | Ratio (Eimeria tenella; 5 ppm in diet): 0.3 | Ratio (Eimeria tenella; 10 ppm in diet): 0.0 | Ratio (Eimeria tenella; [3]): 0.3 | Ratio (Eimeria tenella; 20 ppm in diet): 0.0 | Ratio (Eimeria tenella; [4]): 0.0 | Ratio (Eimeria tenella; 30 ppm in diet): 0.0 | Ratio (Eimeria tenella; [5]): 0.0 | Ratio (Eimeria tenella; 40 ppm in diet): 0.0 | Ratio (Eimeria tenella; [6]): 0.0 | % Weight Gain (Eimeria tenella; 5 ppm in diet): 63% | Average Degree of Infection (Eimeria tenella; 5 ppm in diet): 1.0 | % Weight Gain (Eimeria tenella; 10 ppm in diet): 36% | Average Degree of Infection (Eimeria tenella; 10 ppm in diet): 0.0 | Average Degree of Infection (Eimeria tenella; [3]): 1.0 | % Weight Gain (Eimeria tenella; [3]): 66% | % Weight Gain (Eimeria tenella; 20 ppm in diet): 14% | Average Degree of Infection (Eimeria tenella; 20 ppm in diet): 0.0 | Average Degree of Infection (Eimeria tenella; [4]): 0.0 | % Weight Gain (Eimeria tenella; [4]): 26% | % Weight Gain (Eimeria tenella; 30 ppm in diet): 0% | Average Degree of Infection (Eimeria tenella; 30 ppm in diet): 0.0 | Average Degree of Infection (Eimeria tenella; [5]): 0.0 | % Weight Gain (Eimeria tenella; [5]): 23% | % Weight Gain (Eimeria tenella; 40 ppm in diet): 0% | Average Degree of Infection (Eimeria tenella; 40 ppm in diet): 0.0 | Average Degree of Infection (Eimeria tenella; [6]): 0.0 | % Weight Gain (Eimeria tenella; [6]): 2% | control of infections due to Eimeria tenella (Eimeria tenella; [7]): effective in controlling infections | Ratio (Eimeria acervulina; 5 ppm in diet): 1.10 | Ratio (Eimeria acervulina; 10 ppm in diet): 0.50 | Ratio (Eimeria acervulina; [3]): 0.30 | Ratio (Eimeria acervulina; 20 ppm in diet): 0.40 | Ratio (Eimeria acervulina; [4]): 0.20 | Ratio (Eimeria acervulina; 30 ppm in diet): 0.20 | Ratio (Eimeria acervulina; [5]): 0.30 | Ratio (Eimeria acervulina; 40 ppm in diet): 0.60 | Ratio (Eimeria acervulina; [6]): 0.60 | % Weight Gain (Eimeria acervulina; 5 ppm in diet): 11% | Average Degree of Infection (Eimeria acervulina; 5 ppm in diet): 2.2 | % Weight Gain (Eimeria acervulina; 10 ppm in diet): 40% | Average Degree of Infection (Eimeria acervulina; 10 ppm in diet): 1.0 | Average Degree of Infection (Eimeria acervulina; [3]): 0.6 | % Weight Gain (Eimeria acervulina; [3]): 0% | % Weight Gain (Eimeria acervulina; 20 ppm in diet): 30% | Average Degree of Infection (Eimeria acervulina; 20 ppm in diet): 0.8 | Average Degree of Infection (Eimeria acervulina; [4]): 0.4 | % Weight Gain (Eimeria acervulina; [4]): 60% | % Weight Gain (Eimeria acervulina; 30 ppm in diet): 0% | Average Degree of Infection (Eimeria acervulina; 30 ppm in diet): 0.4 | Average Degree of Infection (Eimeria acervulina; [5]): 0.6 | % Weight Gain (Eimeria acervulina; [5]): 0% | % Weight Gain (Eimeria acervulina; 40 ppm in diet): 0% | Average Degree of Infection (Eimeria acervulina; 40 ppm in diet): 1.2 | Average Degree of Infection (Eimeria acervulina; [6]): 1.2 | % Weight Gain (Eimeria acervulina; [6]): 0% | control of infections due to E. acervulina (Eimeria acervulina; [7]): effective in controlling infections | MIC (P. haemolytica; strain 59B018): 0.39 µg/mL (≈ 0.45 µM) | MIC (P. haemolytica; strain 59B046): 0.39 µg/mL (≈ 0.45 µM) | MIC (P. haemolytica; strain 59B061): 50 µg/mL (≈ 57.7 µM) | MIC (Staphylococcus aureus; strain 01A005): 0.39 µg/mL (≈ 0.45 µM) | MIC (Staphylococcus aureus; strain 01A052): 0.39 µg/mL (≈ 0.45 µM) | MIC (Staphylococcus aureus; strain 01A106): 0.78 µg/mL (≈ 0.9 µM) | MIC (Staphylococcus aureus; strain 01A110): 0.39 µg/mL (≈ 0.45 µM) | MIC (Staphylococcus aureus; strain 01A539): 0.78 µg/mL (≈ 0.9 µM) | MIC (Staphylococcus aureus; strain 01A543): 3.12 µg/mL (≈ 3.6 µM) | MIC (Bordatella bronchi; strain 73A006): 0.39 µg/mL (≈ 0.45 µM) | MIC (Bordatella bronchi; strain 73A016): 6.25 µg/mL (≈ 7.21 µM) | MIC (Pasteurella multocida; strain 59A013): 50 µg/mL (≈ 57.7 µM) | MIC (Pasteurella multocida; strain 59A048): 0.39 µg/mL (≈ 0.45 µM) | MIC (Treponema hyodysenteriae; Brachyspira hyodysenteriae, strain 94A001, read-out: MIC): 6.25 µg/mL (≈ 7.21 µM) | activity against Treponema hyodysenteriae (Treponema hyodysenteriae; in vitro): possesses activity against Treponema hyodysenteriae | MIC (Treponema hyodysenteriae; strain 94A002): 6.25 µg/mL (≈ 7.21 µM) | MIC (Streptococcus pyogenes): 0.1 µg/mL (≈ 0.115 µM) | MIC (F. necrophorum): 25 µg/mL (≈ 28.8 µM) | MIC (Lactobacillus casei): 0.39 µg/mL (≈ 0.45 µM) | MIC (Peptococcus sp.): ≤ 0.1 µg/mL | MIC (Corynebacterium pyogenes; Trueperella pyogenes, strain 11D001, read-out: MIC): 12.5 µg/mL (≈ 14.4 µM) | MIC (Corynebacterium pyogenes; strain 11D002): 12.5 µg/mL (≈ 14.4 µM) | MIC (Corynebacterium pyogenes; strain 11D003): 12.5 µg/mL (≈ 14.4 µM) | MIC (Moraxella bovis): 50 µg/mL (≈ 57.7 µM) | MIC (Bacteroides vulgates): 25 µg/mL (≈ 28.8 µM) | MIC ([2]; strain 01B087): 0.78 µg/mL (≈ 0.9 µM) | MIC ([2]; strain 01B111): 0.39 µg/mL (≈ 0.45 µM) | MIC (Haemophilus parahemol.): 25 µg/mL (≈ 28.8 µM) | MIC (Erysip. rhusio): 0.39 µg/mL (≈ 0.45 µM) | MIC (L. catenaforme): 0.39 µg/mL (≈ 0.45 µM) | MIC (Fusobacterium plauti): 0.39 µg/mL (≈ 0.45 µM)
